In brackets after ≈: the same amount, converted by molar mass. Where two headings read alike, the source gives them in different places.
Legend:
Klebsiella pneumoniae = test: Susceptibility testing (MIC) Assay 2, broth microdilution; type: cell-based; conditions: clinical isolate, mucoid, read-out: Kpn MIC
Pseudomonas aeruginosa = test: as above; type: cell-based; conditions: for MIC: PAO1, read-out: Pae MIC
Haemophilus influenzae = test: as above; type: cell-based; conditions: ATCC 51907, in vivo strain, read-out: Hin MIC
Escherichia coli = test: as above; type: cell-based; conditions: K12, read-out: Eco MIC
Streptococcus pneumoniae = test: Susceptibility testing (MIC) Assay 1, broth microdilution; type: cell-based
Staphylococcus aureus = test: as above; type: cell-based
Streptococcus pyogenes = test: as above; type: cell-based; conditions: Streptococcus pyrgenes, in vivo strain, read-out: Spy MIC
[1] = target: Escherichia coli DNA gyrase A/B tetramer (Escherichia coli (strain K12), UniProt P0AES4+P0AES6); test: DNA gyrase supercoiling activity fluorescence polarisation assay; type: biochemical; conditions: 0.3 mM ATP
Summary of the method: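 Relaxed triplex-forming plasmid (130 micrograms/mL) supercoiled by 5 nM gyrase A/B tetramer in Tris-HCl pH 7.5 buffer with 4 mM MgCl2 and 0.3 mM ATP, ~30 min, ambient temperature. Quenched with 5′-BODIPY-FL triplex probe at pH 3.5; fluorescence anisotropy read after 60 min. IC50 by nonlinear regression against two control reactions.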

[2] = ATCC51907, Haemophilus influenzae
[3] = in vivo strain (footnote b), read-out: Spn(b) MIC
[4] = in vivo strain (footnote c), read-out: Spn(c) MIC
[5] = Staphylococcus aureus, Staphylococcus aureus in vivo strain, MSQS, read-out: Sau(d) MIC
[6] = Staphylococcus aureus, in vivo strain, MRQR, read-out: Sau(e) MIC
[7] = Staphylococcus aureus, serum, read-out: Sau(f) MIC
[8] = Eco Gyr FP Mean IC50, E. coli DNA gyrase supercoiling

Row | Compound | MIC (Klebsiella pneumoniae) [µM] | MIC (Pseudomonas aeruginosa) [µM] | MIC (Haemophilus influenzae; [2]) [µM] | MIC (Escherichia coli) [µM] | MIC (Streptococcus pneumoniae; [3]) [µM] | MIC (Streptococcus pneumoniae; [4]) [µM] | MIC (Staphylococcus aureus; [5]) [µM] | MIC (Staphylococcus aureus; [6]) [µM] | MIC (Staphylococcus aureus; [7]) [µM] | MIC (Streptococcus pyogenes; Streptococcus pyogenes) [µM] | IC50 [1, 8] [nM] | Pae MIC (Pseudomonas aeruginosa; PAO1) [µM] | MIC (Haemophilus influenzae) [µM] | MIC (Staphylococcus aureus; Staphylococcus aureus in vivo strain, MSQS, read-out: Sau(d) MIC) [µM] | MIC (Streptococcus pyogenes) [µM] | IC50 ([1]; E. coli DNA gyrase supercoiling, read-out: Eco Gyr FP Mean IC50) [nM]
1 | C[C@@H]1CN2c3c(cc4c(N5C[C@H](CN=[N+]=[N-])OC5=O)noc4c3F)CC3(C(=O)NC(=O)NC3=O)[C@H]2[C@H](C)O1 [Example 44, (2R,4S,4aS)-8-[(5R)-5-(Azidomethyl)-2-oxo-1,3-oxazolidin-3-yl]-11-fluoro-2,4-dimethyl-1,2,4,4a-tetrahydro-2′H,6H-spiro[1,4-oxazino[4,3-a][1,2]oxazolo[4,5-g]quinoline-5,5′-pyrimidine]-2′,4′,6′(1′H,3′H)-trione] | > 200 | > 200 | 0.78 (≈ 0.412 µg/mL) | 50 (≈ 26.4 µg/mL) | 0.78 (≈ 0.412 µg/mL) | 1.6 (≈ 0.846 µg/mL) | 0.78 (≈ 0.412 µg/mL) | 3.1 (≈ 1.64 µg/mL) | 3.1 (≈ 1.64 µg/mL) | 0.78 (≈ 0.412 µg/mL) | 530 |  |  |  |  | 
2 | CSC[C@H]1COC(=O)N1c1noc2c(F)c3c(cc12)CC1(C(=O)NC(=O)NC1=O)[C@H]1[C@H](C)O[C@H](C)CN31 [Example 45] | 200 (≈ 107 µg/mL) | > 200 | 0.39 (≈ 0.208 µg/mL) | 25 (≈ 13.3 µg/mL) | 0.39 (≈ 0.208 µg/mL) | 0.55 (≈ 0.293 µg/mL) | < 0.2 | 0.39 (≈ 0.208 µg/mL) | 0.78 (≈ 0.416 µg/mL) | 0.39 (≈ 0.208 µg/mL) | 260 |  |  |  |  | 
3 | C[C@@H]1CN2c3c(cc4c(N5C(=O)OC[C@@H]5CS(C)(=O)=O)noc4c3F)CC3(C(=O)NC(=O)NC3=O)[C@H]2[C@H](C)O1 [Example 46] | > 200 | > 200 | 0.78 (≈ 0.441 µg/mL) | 100 (≈ 56.6 µg/mL) | 0.78 (≈ 0.441 µg/mL) | 1.6 (≈ 0.905 µg/mL) | 1.6 (≈ 0.905 µg/mL) | 6.2 (≈ 3.51 µg/mL) | 1.6 (≈ 0.905 µg/mL) | 0.39 (≈ 0.221 µg/mL) | 170 |  |  |  |  | 
4 | C[C@@H]1CN2c3c(cc4c(N5C(=O)OC[C@H]5CN=[N+]=[N-])noc4c3F)CC3(C(=O)NC(=O)NC3=O)[C@H]2[C@H](C)O1 [Example 47, (2R,4S,4aS)-8-((R)-4-(Azidomethyl)-2-oxooxazolidin-3-yl)-11-fluoro-2,4-dimethyl-2,4,4a,6-tetrahydro-1H,1′H-spiro[isoxazolo[4,5-g][1,4]oxazino[4,3-a]quinoline-5,5′-pyrimidine]-2′,4′,6′(3′H)-trione] | 200 (≈ 106 µg/mL) | > 200 | 0.78 (≈ 0.412 µg/mL) | 25 (≈ 13.2 µg/mL) | 0.39 (≈ 0.206 µg/mL) | 0.55 (≈ 0.291 µg/mL) | < 0.2 | 0.78 (≈ 0.412 µg/mL) | 0.78 (≈ 0.412 µg/mL) | 0.279 (≈ 0.147 µg/mL) | 150 |  |  |  |  | 
5 | C[C@@H]1CN2c3c(cc4c(N5C(=O)OC[C@@H]5CN=[N+]=[N-])noc4c3F)CC3(C(=O)NC(=O)NC3=O)[C@H]2[C@H](C)O1 [Example 48] | >200 |  |  | 200 (≈ 106 µg/mL) | 12 (≈ 6.34 µg/mL) | 12 (≈ 6.34 µg/mL) |  | 12 (≈ 6.34 µg/mL) | 50 (≈ 26.4 µg/mL) |  |  | >200 | 6.2 (≈ 3.28 µg/mL) | 6.2 (≈ 3.28 µg/mL) | 6.2 (≈ 3.28 µg/mL) | > 2100
6 | CCOC[C@H]1COC(=O)N1c1noc2c(F)c3c(cc12)CC1(C(=O)NC(=O)NC1=O)[C@H]1[C@H](C)O[C@H](C)CN31 [Example 49, (2R,4S,4aS)-8-[(4S)-4-(Ethoxymethyl)-2-oxo-1,3-oxazolidin-3-yl]-11-fluoro-2,4-dimethyl-1,2,4,4a-tetrahydro-2′H,6H-spiro[1,4-oxazino[4,3-a][1,2]oxazolo[4,5-g]quinoline-5,5′-pyrimidine]-2′,4′,6′(1′H,3′H)-trione] | > 200 | > 200 | 1.6 (≈ 0.85 µg/mL) | 50 (≈ 26.6 µg/mL) | 0.78 (≈ 0.415 µg/mL) | 1.6 (≈ 0.85 µg/mL) | 0.39 (≈ 0.207 µg/mL) | 0.78 (≈ 0.415 µg/mL) | 0.78 (≈ 0.415 µg/mL) | 0.78 (≈ 0.415 µg/mL) | 380 |  |  |  |  | 
7 | COCCOC[C@H]1COC(=O)N1c1noc2c(F)c3c(cc12)CC1(C(=O)NC(=O)NC1=O)[C@H]1[C@H](C)O[C@H](C)CN31 [Example 50, (2R,4S,4aS)-11-Fluoro-8-{(4S)-4-[(2-methoxyethoxy)methyl]-2-oxo-1,3-oxazolidin-3-yl}-2,4-dimethyl-1,2,4,4a-tetrahydro-2′H,6H-spiro[1,4-oxazino[4,3-a][1,2]oxazolo[4,5-g]quinoline-5,5′-pyrimidine]-2′,4′,6′(1′H,3′H)-trione] | > 200 | > 200 | 3.1 (≈ 1.74 µg/mL) | 200 (≈ 112 µg/mL) | 1.6 (≈ 0.898 µg/mL) | 1.6 (≈ 0.898 µg/mL) | 1.6 (≈ 0.898 µg/mL) | 3.1 (≈ 1.74 µg/mL) | 1.6 (≈ 0.898 µg/mL) | 1.6 (≈ 0.898 µg/mL) | 200 |  |  |  |  | 
8 | C[C@@H]1CN2c3c(cc4c(N5C(=O)OC[C@@H]5C(F)F)noc4c3F)CC3(C(=O)NC(=O)NC3=O)[C@H]2[C@H](C)O1 [Example 51] | 100 (≈ 52.3 µg/mL) | > 200 | 0.39 (≈ 0.204 µg/mL) | 12 (≈ 6.28 µg/mL) | 0.78 (≈ 0.408 µg/mL) | 0.78 (≈ 0.408 µg/mL) | 0.28 (≈ 0.147 µg/mL) | 0.55 (≈ 0.288 µg/mL) | 0.78 (≈ 0.408 µg/mL) | 0.55 (≈ 0.288 µg/mL) | 430 |  |  |  |  | 
9 | C[C@@H]1CN2c3c(cc4c(N5C(=O)OC[C@@H]5C5CC5)noc4c3F)CC3(C(=O)NC(=O)NC3=O)[C@H]2[C@H](C)O1 [Example 52] | 200 (≈ 103 µg/mL) | > 200 | 0.78 (≈ 0.401 µg/mL) | 25 (≈ 12.8 µg/mL) | 1.6 (≈ 0.822 µg/mL) | 1.6 (≈ 0.822 µg/mL) | 0.78 (≈ 0.401 µg/mL) | 1.6 (≈ 0.822 µg/mL) | 3.1 (≈ 1.59 µg/mL) | 0.78 (≈ 0.401 µg/mL) | 900 |  |  |  |  | 
10 | C[C@@H]1CN2c3c(cc4c(N5C[C@H](c6ccccn6)OC5=O)noc4c3F)CC3(C(=O)NC(=O)NC3=O)[C@H]2[C@H](C)O1 [Example 53, (2R,4S,4aS)-11-Fluoro-2,4-dimethyl-8-((R)-2-oxo-5-(pyridin-2-yl)oxazolidin-3-yl)-2,4,4a,6-tetrahydro-1H,1′H-spiro[isoxazolo[4,5-g][1,4]oxazino[4,3-a]quinoline-5,5′-pyrimidine]-2′,4′,6′(3′H)-trione] | > 200 | > 200 | 1.1 (≈ 0.606 µg/mL) | 35 (≈ 19.3 µg/mL) | 0.39 (≈ 0.215 µg/mL) | 0.55 (≈ 0.303 µg/mL) | 0.098 (≈ 0.0539 µg/mL) | 0.39 (≈ 0.215 µg/mL) | 0.55 (≈ 0.303 µg/mL) | 0.464 (≈ 0.255 µg/mL) | 380 |  |  |  |  | 
11 | C[C@@H]1CN2c3c(cc4c(N5C[C@@H](c6ccccn6)OC5=O)noc4c3F)CC3(C(=O)NC(=O)NC3=O)[C@H]2[C@H](C)O1 [Example 54, (2R,4S,4aS)-11-fluoro-2,4-dimethyl-8-((S)-2-oxo-5-(pyridin-2-yl)oxazolidin-3-yl)-2,4,4a,6-tetrahydro-1H,1′H-spiro[isoxazolo[4,5-g][1,4]oxazino[4,3-a]quinoline-5,5′-pyrimidine]-2′,4′,6′(3′H)-trione] | > 200 | > 200 | 3.1 (≈ 1.71 µg/mL) | 100 (≈ 55.1 µg/mL) | 0.78 (≈ 0.429 µg/mL) | 0.78 (≈ 0.429 µg/mL) | 0.39 (≈ 0.215 µg/mL) | 0.78 (≈ 0.429 µg/mL) | 1.6 (≈ 0.881 µg/mL) | 0.78 (≈ 0.429 µg/mL) | 940 |  |  |  |  | 
12 | C[C@@H]1CN2c3c(cc4c(N5C(=O)OC[C@H]5c5ccccn5)noc4c3F)CC3(C(=O)NC(=O)NC3=O)[C@H]2[C@H](C)O1 [Example 55, (2R,4S,4aS)-11-Fluoro-2,4-dimethyl-8-((R)-2-oxo-4-(pyridin-2-yl)oxazolidin-3-yl)-2,4,4a,6-tetrahydro-1H,1′H-spiro[isoxazolo[4,5-g][1,4]oxazino[4,3-a]quinoline-5,5′-pyrimidine]-2′,4′,6′(3′H)-trione] | > 200 | > 200 | 0.39 (≈ 0.215 µg/mL) | 50 (≈ 27.5 µg/mL) | 0.78 (≈ 0.429 µg/mL) | 0.78 (≈ 0.429 µg/mL) | 0.78 (≈ 0.429 µg/mL) | 1.6 (≈ 0.881 µg/mL) | 1.6 (≈ 0.881 µg/mL) | 0.78 (≈ 0.429 µg/mL) | 150 |  |  |  |  | 
13 | C[C@@H]1CN2c3c(cc4c(N5C(=O)OC[C@@H]5c5ccccn5)noc4c3F)CC3(C(=O)NC(=O)NC3=O)[C@H]2[C@H](C)O1 [Example 56, (2R,4S,4aS)-11-fluoro-2,4-dimethyl-8-((S)-2-oxo-4-(pyridin-2-yl)oxazolidin-3-yl)-2,4,4a,6-tetrahydro-1H,1′H-spiro[isoxazolo[4,5-g][1,4]oxazino[4,3-a]quinoline-5,5′-pyrimidine]-2′,4′,6′(3′H)-trione] | > 200 | > 200 | 3.1 (≈ 1.71 µg/mL) | > 200 | 6.2 (≈ 3.41 µg/mL) | 6.2 (≈ 3.41 µg/mL) | 3.1 (≈ 1.71 µg/mL) | 6.2 (≈ 3.41 µg/mL) | 25 (≈ 13.8 µg/mL) | 3.1 (≈ 1.71 µg/mL) | 1900 |  |  |  |  | 
14 | C[C@@H]1CN2c3c(cc4c(N5C(=O)OC[C@H]5c5ccncc5)noc4c3F)CC3(C(=O)NC(=O)NC3=O)[C@H]2[C@H](C)O1 [Example 57, (2R,4S,4aS)-11-Fluoro-2,4-dimethyl-8-((R)-2-oxo-4-(pyridin-4-yl)oxazolidin-3-yl)-2,4,4a,6-tetrahydro-1H,1′H-spiro[isoxazolo[4,5-g][1,4]oxazino[4,3-a]quinoline-5,5′-pyrimidine]-2′,4′,6′(3′H)-trione] | > 200 | > 200 | 0.39 (≈ 0.215 µg/mL) | 100 (≈ 55.1 µg/mL) | 0.78 (≈ 0.429 µg/mL) | 1.6 (≈ 0.881 µg/mL) | 1.6 (≈ 0.881 µg/mL) | 6.2 (≈ 3.41 µg/mL) | 3.1 (≈ 1.71 µg/mL) | 0.78 (≈ 0.429 µg/mL) | 760 |  |  |  |  | 

— patent US8889671B2, “Compounds and methods for treating bacterial infections” (AstraZeneca AB, priority 2013, dated 2014)
